Source: patent publication US6586606B2, “Process for the preparation of 3-aryl-benzofuran-2-ones” (Ciba Specialty Chemicals Corporation, priority 2000, dated 2003)

Tests used:
[1] = Stabilisation of polyethylene in permanent contact with water (extraction test, oxidation induction time); conditions: 0.05% compound (302) with 0.10% Irganox 1010, 0.05% Irgafos, 0.10% calcium stearate in PE-HD; deionised water, 50 days at 80° C.
Method: Stabilisation of polyethylene which is in permanent contact with water.
0.10% by weight of calcium stearate and a stabilizer mixture comprising 0.10% by weight of Irganox®1010 (pentaerythritol tetrakis[3-(3,5-di-tert-butyl-4-hydroxyphenyl)propionate]), 0.05% by weight of Irgafos®68 (tris(2,4-di-tert-butylphenyl)phosphite) and 0.05% by weight of compound (302) (Table 3) is added dry to a polyethylene polymer (Hostalene® CRP 100; PE-HD) taken direct from a reactor and are incorporated therein in a Pappenmaier mixer (type 20) within 2 minutes.
In an extruder, of Schwabenthan, the stabilized polyethylene is homogenised and processed to granulate. For the extraction tests in water, 200 mm by 150 mm by 2 mm test plates are pressed from the granulate of the individual formulations using a table press. To ease the demoulding of the test plates, the pressing process is carried out between two aluminium foils. […]
The test plates are subjected to the above test conditions for 50 days at 80° C. Upon termination of the extraction test, the residual stabilizer content and the oxidation induction time of the test plates are determined.
The residual content of sterically hindered phenol, Irganox®1010, is determined using an internal standard in an HPLC appliance of the Spectra Physics SP 8800 type, equipped with autosampler and UV/VIS detector of the Spectra 200 type. […]

Compound | melting point | stability of polyolefins in permanent contact with extracting media [1]
CC(C)(C)c1cc2c(c(C(C)(C)C)c1)OC(=O)C2c1ccccc1 (centres unmarked) [(101), 5,7-di-tert-butyl-3-phenyl-3H-benzofuran-2-one] | 116 to 119 °C | 
Cc1ccc(-c2c(N)oc3c(C(C)(C)C)cc(C(C)(C)C)cc23)cc1C [Compound (302), 2-amino-5,7-di-tert-butyl-3-(3,4-dimethylphenyl)-benzofurane] | 128 to 130 °C | improved
CC(C)(C)c1cc(C(C)(C)C)c2oc(N)c(-c3ccccc3)c2c1 [Compound (301), 2-amino-3-phenyl-5,7-di-tert-butyl-benzofurane] | 174 to 178 °C | 
COc1ccc(-c2c(N)oc3c(C(C)(C)C)cc(C(C)(C)C)cc23)cc1OC [(303), 2-amino-5,7-di-tert-butyl-3-(3,4-dimethoxyphenyl)-benzofurane] | 172 to 174 °C | 
